Like-named read-outs stand apart in the source and are kept apart here.
Experiments:
[1] = test system: MCT-induced PAH and RV dysfunction; assay: Monocrotaline (MCT)-induced chronic PAH and RV dysfunction model in rats; assay type: in vivo, Male Sprague-Dawley rats; conditions: for RV hypertrophy, RV(milligrams)/LV(milligrams) / plasma BNP levels / decrease in RV ejection fraction: day 28; for RV hypertrophy, RV(milligrams)/LV(milligrams): MCT 0.55±0.04; for plasma BNP levels: MCT 590±106, control 170±90; for decrease in RV ejection fraction: MCT −47±7%; for pulmonary systolic pressure: MCT 84±7, control 29±1; for RV systolic pressure: MCT 86±7, control 26±1
Description: As is discussed in detail hereinabove, ranolazine is an anti-anginal drug that inhibits the late sodium current (INa) in cardiomyocytes. Late INa is increased during conditions of ischemia and hypoxia, and causes intracellular Ca^2+ overload by increasing the amount of intracellular Na^+ available for exchange via the Na^+—Ca^2+ exchanger (NCX). […] Monocrotaline or MCT (a poisonous crystalline alkaloid found in a leguminous plant of the genus Crotalaria) induces progressive pulmonary arterial hypertension (PAH) in rats that results in RV hypertrophy, contractile dysfunction, and eventually RV failure. Both human PAH and MCT-induced PAH models are characterized by hypoxia and increased ROS production but the role of late INa in this model has not been investigated. Therefore, the present example evaluates the efficacy of RAN to prevent MCT-induced PAH and RV dysfunction. Male Sprague-Dawley rats were given a single injection of MCT (60 milligrams per kilogram, s.c.) at study inception and randomized into three groups; MCT, low dose RAN (0.25% weight of RAN over weight of chow), and high dose (0.5% weight of RAN over weight of chow) RAN. RAN was given in diet for 28 days mixed in standard rodent chow containing 0.25% or 0.5% RAN for low and high doses, respectively. These concentrations of RAN yielded plasma concentrations of 1-2 micromolar and 5-7 micromolar, respectively. A control group received a sub-cutaneous (s.c.) saline injection and was fed standard rodent chow. Pulmonary hemodynamics, RV function, and RV hypertrophy was assessed at endpoint (day 28 following MCT administration). Alpha-smooth muscle actin (α-SMA) staining on lung tissue sections were carried out to assess pulmonary vascular remodeling at day 28 as well.

[2] = Plasma concentration of RAN given in diet to rats; assay type: in vivo; conditions: male, Sprague-Dawley, oral, rat, read-out: plasma concentrations
Description: Male Sprague-Dawley rats were given a single injection of MCT (60 milligrams per kilogram, s.c.) at study inception and randomized into three groups; MCT, low dose RAN (0.25% weight of RAN over weight of chow), and high dose (0.5% weight of RAN over weight of chow) RAN. RAN was given in diet for 28 days mixed in standard rodent chow containing 0.25% or 0.5% RAN for low and high doses, respectively. These concentrations of RAN yielded plasma concentrations of 1-2 micromolar and 5-7 micromolar, respectively. A control group received a sub-cutaneous (s.c.) saline injection and was fed standard rodent chow. Pulmonary hemodynamics, RV function, and RV hypertrophy was assessed at endpoint (day 28 following MCT administration). Alpha-smooth muscle actin (α-SMA) staining on lung tissue sections were carried out to assess pulmonary vascular remodeling at day 28 as well.

[3] = test system: right ventricular remodeling following acute myocardial infarction; assay: Murine model of large anterior wall acute myocardial infarction (permanent ligation of the left coronary artery); assay type: in vivo, Male Imprinting Control Region (ICR) mice; conditions: 30 mg/kg i.p. every 6 hours for 7 days
Method: Male Imprinting Control Region (ICR) mice underwent permanent coronary artery ligation of the left coronary artery and treated with vehicle (saline) or ranolazine 30 mg/kg i.p. every 6 hours (N=10-12 per group) for 7 days starting at the time of ligation. Infarct size was measured early using Masson's trichrome staining. Transthoracic echocardiography was performed prior to surgery and 7 days later to measure left ventricular and right ventricular dimensions and function.

[4] = test system: pulmonary hypertension or PAH; assay: Right ventricular function, exercise capacity and quality of life in patients with pulmonary hypertension or PAH; assay type: in vivo; conditions: contemplated result
Description: To ascertain the improvement in right ventricular function in patients suffering from pulmonary hypertension or pulmonary arterial hypertension (PAH), the following parameters are examined: • Exercise capacity and quality of life • RV subendocardial perfusion using adenosine cardiac MRI studies • Exercise-induced changes in RV function determined non-invasively using comprehensive Doppler and tissue Doppler echocardiography along with determination of right ventricular—pulmonary vascular coupling and pulmonary vascular impedance spectra • RV contractility and comprehensive pressure-volume analysis using invasive hemodynamics, 2D and 3D echocardiography, and cardiac MRI Note that the aforementioned endpoints use a combination of invasive and non-invasive techniques. Echocardiography techniques are best suited for exercise studies. Echocardiographic RV volume data can be normalized to MRI RV volume data, and echocardiographic estimation of RV pressures can be normalized to invasive RV pressure data, thereby increasing the accuracy of echocardiographic analysis of RV structure and function.

[5] = high dose RAN (0.5% in chow), day 28 after MCT
[6] = echocardiography at day 7, versus vehicle-treated mice

SMILES: COc1ccccc1OCC(O)CN1CCN(CC(=O)Nc2c(C)cccc2C)CC1 (racemic) [ranolazine, ±-N-(2,6-dimethylphenyl)-4-[2-hydroxy-3-(2-methoxyphenoxy)-propyl]-1-piperazineacetamide]
- MCT induced changes (PAH and RV dysfunction), overall ([1]; 0.25% and 0.5% RAN in chow, 28 days): significantly and dose-dependently attenuated
- RV hypertrophy, RV(milligrams)/LV(milligrams) ([1]; high dose RAN (0.5% in chow)): 0.32±0.03
- plasma BNP levels ([1]; high dose RAN (0.5% in chow)): 60±20 picograms/milliliter
- decrease in RV ejection fraction ([1]; high dose RAN (0.5% in chow)): −10±8%
- pulmonary systolic pressure [1, 5]: 40±4 millimeters Hg
- RV systolic pressure [1, 5]: 39±4 millimeters Hg
- RV hypertrophy, RV(milligrams)/LV(milligrams) ([1]; low dose RAN (0.25% in chow)): 0.4±0.03
- plasma BNP levels ([1]; low dose RAN (0.25% in chow)): 180±30 picograms/milliliter
- decrease in RV ejection fraction ([1]; low dose RAN (0.25% in chow)): −17±11%
- pulmonary systolic pressure ([1]; low dose RAN (0.25% in chow), day 28 after MCT 60 mg/kg s.c.): 59±5 millimeters Hg
- RV systolic pressure ([1]; low dose RAN (0.25% in chow), day 28 after MCT): 58±5 millimeters Hg
- pulmonary vascular remodeling in intra-acinar arteries (ratio of vessel wall thickness to lumen diameter) ([1]; α-SMA staining of lung sections, day 28, compared to MCT animals): significantly reduced remodeling
- concentration at 28 days ([2]; 0.25 % weight of RAN over weight of chow, low dose RAN, 0.25% in chow): 1 to 2 µM
- concentration at 28 days ([2]; 0.5 % weight of RAN over weight of chow, high dose RAN, 0.5% in chow): 5 to 7 µM
- infarct size ([3]; Masson's trichrome staining): absence of any measurable effects
- LV function and dimension ([3]; echocardiography at day 7): absence of any measurable effects
- RV dimension (RV diastolic and systolic areas) [3, 6]: significant preservation
- RV function (TAPSE and RV fractional area change) [3, 6]: significant preservation
- exercise capacity and quality of life [4]: improve exercise capacity and quality of life
- pain associated with pulmonary hypertension or PAH [4]: ameliorates pain

From patent publication US20120004188A1, “USE OF RANOLAZINE FOR TREATING PULMONARY HYPERTENSION” (Gilead Sciences, Inc., priority 2010, published 2012)
